Source: patent US7504400B2, “MTP inhibiting aryl piperydines or piperazines substituted with 5-membered heterocycles” (Janssen Pharmaceutica N.V., priority 2004, dated 2009)

Test system: Secretion of ApoB
Test: Quantification of the secretion of ApoB in HepG2 cells
Type: cell-based
Settings: Homo sapiens, HepG2, 24 h, 24 hours of incubation with test compound, immunoprecipitation of apoB from medium, read-out: pIC50 value (=-log IC50 value), secretion of ApoB (converted)
Method in brief: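 At 70% confluency, HepG2 cells in MEM with 10% FCS received compound or DMSO carrier (0.4% final) for 24 h. Secreted apoB in cleared medium immunoprecipitated with sheep anti-apoB then rabbit anti-sheep antibody (24 h each, 8° C); pellet radioactivity counted by liquid scintillation; IC50 expressed as pIC50.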

| SMILES | IC50 |
| --- | --- |
| COC(=O)C(c1cccc(Cl)c1)N1CCC(c2ccc(-n3cnn(C(C)C)c3=O)cc2)CC1 (stereo not drawn) [Compound 320] | 316 to 3160 nM |
| COC(=O)C(c1ccc(Cl)cc1)N1CCC(c2ccc(-n3cnn(C(C)C)c3=O)cc2)CC1 (stereo not drawn) [Compound 321] | 316 to 3160 nM |
| COC(=O)C(c1ccc(Cl)cc1Cl)N1CCC(c2ccc(-n3cnn(C(C)C)c3=O)cc2)CC1 (stereo not drawn) [Compound 322] | 31.6 to 316 nM |
| COC(=O)C(c1ccc(Br)cc1)N1CCC(c2ccc(-n3cnn(C(C)C)c3=O)cc2)CC1 (stereo not drawn) [Compound 323] | 316 to 3160 nM |
| COC(=O)C(c1ccc(C)cc1)N1CCC(c2ccc(-n3cnn(C(C)C)c3=O)cc2)CC1 (stereo not drawn) [Compound 324] | 316 to 3160 nM |
| COC(=O)C(c1ccccc1Cl)N1CCN(c2ccc(-n3cnn(C(C)C)c3=O)cc2)CC1 (stereo not drawn) [Compound 325] | 31.6 to 316 nM |
| COC(=O)C(c1cccc(Cl)c1)N1CCN(c2ccc(-n3cnn(C(C)C)c3=O)cc2)CC1 (stereo not drawn) [Compound 326] | 316 to 3160 nM |
| COC(=O)C(c1ccc(Cl)cc1)N1CCN(c2ccc(-n3cnn(C(C)C)c3=O)cc2)CC1 (stereo not drawn) [Compound 327] | 316 to 3160 nM |
| COC(=O)C(c1ccc(Cl)cc1Cl)N1CCN(c2ccc(-n3cnn(C(C)C)c3=O)cc2)CC1 (stereo not drawn) [Compound 328] | 31.6 to 316 nM |
| COC(=O)C(c1ccc(Br)cc1)N1CCN(c2ccc(-n3cnn(C(C)C)c3=O)cc2)CC1 (stereo not drawn) [Compound 329] | 316 to 3160 nM |
| COC(=O)C(c1ccc(C)cc1)N1CCN(c2ccc(-n3cnn(C(C)C)c3=O)cc2)CC1 (stereo not drawn) [Compound 330] | 316 to 3160 nM |
| CCOC(=O)C(c1ccccc1)N1CCN(c2ccc(-n3ccn(C(C)c4cccc(F)c4F)c3=O)cc2)CC1 (stereo not drawn) [Compound 332] | 31.6 to 316 nM |
| CCOC(=O)C(c1ccccc1)N1CCN(c2ccc(-n3ccn(C(C)c4cc(F)ccc4F)c3=O)cc2)CC1 (stereo not drawn) [Compound 334] | 31.6 to 316 nM |
| CCOC(=O)C(c1ccccc1)N1CCN(c2ccc(-n3nc4cccc(C)n4c3=O)cc2)CC1 (stereo not drawn) [Compound 347] | 316 to 3160 nM |
| CCOC(=O)c1cc(NC(=O)C(c2ccccc2)N2CCC(c3ccc(-n4cnn(C(C)C)c4=O)cc3)CC2)ccc1C (stereo not drawn) [Compound 349] | < 31.6 nM |
| CCOC(=O)C(c1ccccc1)N1CCN(c2ccc(-n3cnn(C(C)c4ccccc4F)c3=O)cc2)CC1 (stereo not drawn) [Compound 350] | 31.6 to 316 nM |
| CCOC(=O)CC(NC(=O)C(c1ccccc1)N1CCC(c2ccc(-n3cnn(C(C)C)c3=O)cc2)CC1)c1ccc2c(c1)OCO2 (stereo not drawn) [Compound 351] | 316 to 3160 nM |
| COC(=O)CCc1csc(NC(=O)C(c2ccccc2)N2CCC(c3ccc(-n4cnn(C(C)C)c4=O)cc3)CC2)n1 (stereo not drawn) [Compound 352] | 316 to 3160 nM |
| COC(=O)c1[nH]c2ccc(C)cc2c1NC(=O)C(c1ccccc1)N1CCC(c2ccc(-n3cnn(C(C)C)c3=O)cc2)CC1 (stereo not drawn) [Compound 353] | 31.6 to 316 nM |
| COC(=O)c1ccc2nc(NC(=O)C(c3ccccc3)N3CCC(c4ccc(-n5cnn(C(C)C)c5=O)cc4)CC3)sc2c1 (stereo not drawn) [Compound 354] | 316 to 3160 nM |
| CCOC(=O)c1csc(NC(=O)C(c2ccccc2)N2CCN(c3ccc(-n4cnn(C(C)C)c4=O)cc3)CC2)n1 (stereo not drawn) [Compound 357] | 316 to 3160 nM |
| CCOC(=O)CC(NC(=O)C(c1ccccc1)N1CCN(c2ccc(-n3ccn(C(C)C)c3=O)cc2)CC1)c1ccc2c(c1)OCO2 (stereo not drawn) [Compound 358] | 316 to 3160 nM |
| CCOC(=O)CC(NC(=O)C(c1ccccc1)N1CCN(c2ccc(N3CCN(C(C)C)C3=O)cc2)CC1)c1ccc2c(c1)OCO2 (stereo not drawn) [Compound 359] | 316 to 3160 nM |
| CCOC(=O)c1cc(NC(=O)C(c2ccccc2)C2CCN(c3ccc(-n4cnn(C(C)c5ccccc5)c4=O)cc3)CC2)ccc1C (stereo not drawn) [Compound 369] | 31.6 to 316 nM |
| CCOC(=O)c1cc(NC(=O)C(c2ccccc2)C2CCN(c3ccc(-n4cnn(C(C)C)c4=O)cc3)CC2)ccc1C (stereo not drawn) [Compound 370] | 31.6 to 316 nM |
| CCOC(=O)c1cc(NC(=O)CC2CCN(c3ccc(-n4cnn(C(C)c5ccccc5)c4=O)cc3)CC2)ccc1C (stereo not drawn) [Compound 371] | 31.6 to 316 nM |
| CCOC(=O)c1cc(NC(=O)CC2CCN(c3ccc(-n4cnn(C(C)C)c4=O)cc3)CC2)ccc1C [Compound 372] | 316 to 3160 nM |
